Experimental data published in PubChem BioAssay AID292 (DTP/NCI, 2004).
Several values for one entry are separate records, joined by “and”; a condition that tells them apart may be missing. Equal values may be shown once. Inconclusive results and toxic doses are left out.

Test system: B6C3F1 mice, ip Sarcoma M5076, median survival T/C
Test: NCI In Vivo Anticancer Drug Screen. Data for tumor model Sarcoma M5076 (intraperitoneal) in B6C3F1 mice
Conditions: endpoint: median survival time, higher = longer survival
How it was run: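 Transplantable tumour in mice; compound-treated vs vehicle-treated groups. Read-out: survival. Value = treated/control ratio.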

[1] = dose: 6.25 mg/kg/injection, schedule: Q04DX004 (ip), vehicle: saline with Tween-80
[2] = dose: 12.5 mg/kg/injection, schedule: Q04DX004 (ip), vehicle: saline with Tween-80
[3] = dose: 25.0 mg/kg/injection, schedule: Q04DX004 (ip), vehicle: saline with Tween-80
[4] = dose: 50.0 mg/kg/injection, schedule: Q04DX004 (ip), vehicle: saline with Tween-80
[5] = dose: 25.0 mg/kg/injection, schedule: Q04DX004 (ip), vehicle: Klucel (hydroxypropylcellulose) (HPC)
[6] = dose: 50.0 mg/kg/injection, schedule: Q04DX004 (ip), vehicle: Klucel (hydroxypropylcellulose) (HPC)
[7] = dose: 100.0 mg/kg/injection, schedule: Q04DX004 (ip), vehicle: Klucel (hydroxypropylcellulose) (HPC)

O=C1N[C@@H]([C@H]2CC[C@H](Cl)CN2)C(=O)N[C@H]1[C@H]1CC[C@H](Cl)CN1
T/C (dose: 0.5 mg/kg/injection, schedule: Q04DX005 (ip), vehicle: saline): 115 % of control
T/C (dose: 2.0 mg/kg/injection, schedule: Q04DX005 (ip), vehicle: saline): 185 % of control
T/C (dose: 4.0 mg/kg/injection, schedule: Q04DX005 (ip), vehicle: saline): 319 % of control
T/C (dose: 8.0 mg/kg/injection, schedule: Q04DX005 (ip), vehicle: saline): 319 % of control

O=C(CCl)N1CCN(C/C=C/c2ccccc2)CC1
T/C (dose: 37.5 mg/kg/injection, schedule: Q04DX004 (ip), vehicle: saline): 106 % of control
T/C (dose: 75.0 mg/kg/injection, schedule: Q04DX004 (ip), vehicle: saline): 96 % of control
T/C (dose: 150.0 mg/kg/injection, schedule: Q04DX004 (ip), vehicle: saline): 96 % of control

O=c1c2cc3ccccc3cc2c(=O)n2n1CC=CC2
T/C (dose: 20.31 mg/kg/injection, schedule: Q04DX004 (ip), vehicle: Klucel (hydroxypropylcellulose) (HPC)): 100 % of control
T/C (dose: 40.63 mg/kg/injection, schedule: Q04DX004 (ip), vehicle: Klucel (hydroxypropylcellulose) (HPC)): 99 % of control
T/C (dose: 81.25 mg/kg/injection, schedule: Q04DX004 (ip), vehicle: Klucel (hydroxypropylcellulose) (HPC)): 99 % of control
T/C (dose: 162.5 mg/kg/injection, schedule: Q04DX004 (ip), vehicle: Klucel (hydroxypropylcellulose) (HPC)): 99 % of control
T/C (dose: 325.0 mg/kg/injection, schedule: Q04DX004 (ip), vehicle: Klucel (hydroxypropylcellulose) (HPC)): 99 % of control

CC(C)NC(=O)OCc1c(COC(=O)NC(C)C)c(-c2ccc(Cl)c(Cl)c2)n2c1CCC2
T/C (dose: 75.0 mg/kg/injection, schedule: Q04DX004 (ip), vehicle: saline with Tween-80): 161 % of control
T/C (dose: 108.0 mg/kg/injection, schedule: Q04DX004 (ip), vehicle: saline with Tween-80): 188 % of control
T/C (dose: 150.0 mg/kg/injection, schedule: Q04DX004 (ip), vehicle: saline with Tween-80): 186 % of control
T/C (dose: 180.0 mg/kg/injection, schedule: Q04DX004 (ip), vehicle: saline with Tween-80): 114 % of control
T/C (dose: 600.0 mg/kg/injection, schedule: Q04DX004 (ip), vehicle: saline with Tween-80): 152 % of control

CC(C)(C)CCC(Br)CBr (configuration not stated)
T/C (dose: 3.12 mg/kg/injection, schedule: Q04DX004 (ip), vehicle: saline): 98 % of control
T/C (dose: 3.12 mg/kg/injection, schedule: Q04DX004 (ip), vehicle: suspension in saline): 95 % of control
T/C (dose: 6.25 mg/kg/injection, schedule: Q04DX004 (ip), vehicle: saline): 102 % of control
T/C (dose: 6.25 mg/kg/injection, schedule: Q04DX004 (ip), vehicle: suspension in saline): 97 % of control
T/C (dose: 12.5 mg/kg/injection, schedule: Q04DX004 (ip), vehicle: saline): 99 % of control
T/C (dose: 12.5 mg/kg/injection, schedule: Q04DX004 (ip), vehicle: suspension in saline): 99 % of control
T/C (dose: 25.0 mg/kg/injection, schedule: Q04DX004 (ip), vehicle: saline): 100 % of control
T/C (dose: 50.0 mg/kg/injection, schedule: Q04DX004 (ip), vehicle: saline): 100 % of control
T/C (dose: 50.0 mg/kg/injection, schedule: Q04DX004 (ip), vehicle: suspension in saline): 100 % of control and 106 % of control
T/C (dose: 100.0 mg/kg/injection, schedule: Q04DX004 (ip), vehicle: suspension in saline): 111 % of control
T/C (dose: 200.0 mg/kg/injection, schedule: Q04DX004 (ip), vehicle: suspension in saline): 106 % of control
T/C (dose: 400.0 mg/kg/injection, schedule: Q04DX004 (ip), vehicle: suspension in saline): 93 % of control

CO[C@@]12[C@@H]3N[C@@H]3CN1C1=C(C(=O)C(N3CCCC3)=C(C)C1=O)[C@@H]2COC(N)=O
T/C [1]: 269 % of control
T/C [2]: 183 % of control

CC(O)C1(O)C(O)CC(OC2c3cc4c(c(O)c3[C@@H]3C[C@@]2(C)OC32C=c3cc[nH]c3=N2)C(=O)c2cccc(O)c2C4=O)OC1C (some centres not stated)
T/C [2]: 104 % of control
T/C [3]: 104 % of control
T/C [4]: 92 % of control

O=[N+]([O-])c1ccc([I+]c2ccccc2)cc1
T/C (dose: 6.25 mg/kg/injection, schedule: Q04DX004 (ip), vehicle: Klucel (hydroxypropylcellulose) (HPC)): 95 % of control
T/C (dose: 12.5 mg/kg/injection, schedule: Q04DX004 (ip), vehicle: Klucel (hydroxypropylcellulose) (HPC)): 109 % of control
T/C [5]: 99 % of control
T/C [6]: 106 % of control

N=C(N)Sc1cc(O)ccc1O
T/C (dose: 43.75 mg/kg/injection, schedule: Q04DX004 (ip), vehicle: saline with Tween-80): 110 % of control
T/C (dose: 87.5 mg/kg/injection, schedule: Q04DX004 (ip), vehicle: saline with Tween-80): 109 % of control
T/C (dose: 175.0 mg/kg/injection, schedule: Q04DX004 (ip), vehicle: saline with Tween-80): 111 % of control
T/C (dose: 350.0 mg/kg/injection, schedule: Q04DX004 (ip), vehicle: saline with Tween-80): 110 % of control

C/C(=N\NC(=S)N1CC2CCC(CC2)C1)c1cccc(C)n1
T/C [1]: 104 % of control and 107 % of control
T/C [2]: 101 % of control and 106 % of control and 116 % of control
T/C [3]: 104 % of control and 110 % of control and 115 % of control
T/C [4]: 101 % of control and 107 % of control and 119 % of control

O=c1oc2c(O)c(O)cc3c(=O)oc4c(O)c(O)cc1c4c23
T/C (dose: 75.0 mg/kg/injection, schedule: Q04DX004 (ip), vehicle: Klucel (hydroxypropylcellulose) (HPC)): 123 % of control
T/C (dose: 150.0 mg/kg/injection, schedule: Q04DX004 (ip), vehicle: Klucel (hydroxypropylcellulose) (HPC)): 115 % of control
T/C (dose: 300.0 mg/kg/injection, schedule: Q04DX004 (ip), vehicle: Klucel (hydroxypropylcellulose) (HPC)): 120 % of control
T/C (dose: 600.0 mg/kg/injection, schedule: Q04DX004 (ip), vehicle: Klucel (hydroxypropylcellulose) (HPC)): 111 % of control
T/C (dose: 1200.0 mg/kg/injection, schedule: Q04DX004 (ip), vehicle: Klucel (hydroxypropylcellulose) (HPC)): 108 % of control

CCCCCCCCCCCC1C(C#N)C(=O)NC(=O)C1C#N (configuration not stated)
T/C (dose: 50.0 mg/kg/injection, schedule: Q04DX004 (ip), vehicle: Klucel + Tween-80): 104 % of control
T/C (dose: 100.0 mg/kg/injection, schedule: Q04DX004 (ip), vehicle: Klucel + Tween-80): 93 % of control
T/C (dose: 200.0 mg/kg/injection, schedule: Q04DX004 (ip), vehicle: Klucel + Tween-80): 96 % of control
T/C (dose: 400.0 mg/kg/injection, schedule: Q04DX004 (ip), vehicle: Klucel + Tween-80): 93 % of control
T/C (dose: 800.0 mg/kg/injection, schedule: Q04DX004 (ip), vehicle: Klucel + Tween-80): 93 % of control

O=C1N=NC2=C1c1c3ccccc3c(O)n1CC2
T/C (dose: 25.0 mg/kg/injection, schedule: Q04DX004 (ip), vehicle: water): 97 % of control
T/C (dose: 50.0 mg/kg/injection, schedule: Q04DX004 (ip), vehicle: water): 95 % of control
T/C (dose: 100.0 mg/kg/injection, schedule: Q04DX004 (ip), vehicle: water): 93 % of control
T/C (dose: 200.0 mg/kg/injection, schedule: Q04DX004 (ip), vehicle: water): 100 % of control

CCC1C(C#N)C(=O)NC(=O)C1C#N (configuration not stated)
T/C [6]: 104 % of control
T/C [7]: 106 % of control
T/C (dose: 200.0 mg/kg/injection, schedule: Q04DX004 (ip), vehicle: Klucel (hydroxypropylcellulose) (HPC)): 107 % of control
T/C (dose: 400.0 mg/kg/injection, schedule: Q04DX004 (ip), vehicle: Klucel (hydroxypropylcellulose) (HPC)): 104 % of control
T/C (dose: 800.0 mg/kg/injection, schedule: Q04DX004 (ip), vehicle: Klucel (hydroxypropylcellulose) (HPC)): 110 % of control

O=c1ncccn1[C@@H]1O[C@H](CO)[C@H](O)C1O (some centres not stated)
T/C (dose: 25.0 mg/kg/injection, schedule: Q01DX009 (ip), vehicle: saline): 99 % of control
T/C (dose: 50.0 mg/kg/injection, schedule: Q01DX009 (ip), vehicle: saline): 103 % of control
T/C (dose: 100.0 mg/kg/injection, schedule: Q01DX009 (ip), vehicle: saline): 104 % of control
T/C (dose: 125.0 mg/kg/injection, schedule: Q04DX004 (ip), vehicle: saline): 92 % of control
T/C (dose: 200.0 mg/kg/injection, schedule: Q01DX009 (ip), vehicle: saline): 110 % of control
T/C (dose: 250.0 mg/kg/injection, schedule: Q04DX004 (ip), vehicle: saline): 94 % of control
T/C (dose: 400.0 mg/kg/injection, schedule: Q01DX009 (ip), vehicle: saline): 97 % of control
T/C (dose: 500.0 mg/kg/injection, schedule: Q04DX004 (ip), vehicle: saline): 89 % of control
T/C (dose: 1000.0 mg/kg/injection, schedule: Q04DX004 (ip), vehicle: saline): 92 % of control

CCc1ccccc1N1CCN(C(=O)c2cc(OC)c(OC)c(OC)c2)CC1
T/C [5]: 111 % of control
T/C [6]: 112 % of control
T/C [7]: 122 % of control
